Source: patent US12077503B2, “Substituted cyclic amides and their use as herbicides” (FMC CORPORATION, priority 2015, dated 2024)

What was measured:
Assay type in all cases: in vivo
[1] = test system: ivy-leaved morning glory (Ipomoea hederacea); experiment: Test G Post-Emergence Protocol; details: Ipomoea, post-emergence, 312 h; for pest or weed control at 15.625 g/ha: 15.625 g ai/ha, evaluated after 13 days (100=total damage to plant; 0=no damage to plant), read-out: Morningglory, Ivy-leaved damage rating; for pest or weed control at 62.5 g/ha: 62.5 g ai/ha, read-out: Morningglory, Ivy-leaved damage rating (100=total damage to plant; 0=no damage to plant); for pest or weed control at 62.5 g/ha / pest or weed control at 250 g/ha: evaluated after 13 days; for pest or weed control at 250 g/ha: 250 g ai/ha, read-out: damage to plant, Morningglory, Ivy-leaved (100=total damage to plant; 0=no damage to plant)
Method in brief: (§1)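 Damage was rated 13 days after treatment from 0 (none) to 100 (plant killed). Compound was applied as a spray at 15.625, 62.5 or 250 g/ha in 50:50 acetone/water containing 0.5% Tween 20, onto 8-day-old potted plants kept in a glasshouse (24/16 °C, 14 h light, 65% humidity).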

[2] = test system: redroot pigweed (Amaranthus retroflexus); experiment: Test G Post-Emergence Protocol; details: Amaranthus retroflexus, post-emergence, 312 h; for pest or weed control at 15.625 g/ha: 15.625 g ai/ha, evaluated after 13 days (100=total damage to plant; 0=no damage to plant), read-out: Pigweed, Redroot damage rating; for pest or weed control at 62.5 g/ha: 62.5 g ai/ha, read-out: Pigweed, Redroot damage rating (100=total damage to plant; 0=no damage to plant); for pest or weed control at 62.5 g/ha / pest or weed control at 250 g/ha: evaluated after 13 days; for pest or weed control at 250 g/ha: 250 g ai/ha, read-out: damage to plant, Pigweed, Redroot (100=total damage to plant; 0=no damage to plant)
Method in brief: as §1

corn (Zea mays) [3] = experiment: Test G Post-Emergence Protocol; details: Zea mays, post-emergence, 312 h; for plant injury at 15.625 g/ha: 15.625 g ai/ha, evaluated after 13 days (100=total damage to plant; 0=no damage to plant), read-out: Corn damage rating; for plant injury at 62.5 g/ha: 62.5 g ai/ha, read-out: Corn damage rating (100=total damage to plant; 0=no damage to plant); for plant injury at 62.5 g/ha / plant injury at 250 g/ha: evaluated after 13 days; for plant injury at 250 g/ha: 250 g ai/ha, read-out: damage to plant, Corn (100=total damage to plant; 0=no damage to plant)
Method in brief: as §1

[4] = test system: giant foxtail (Setaria faberi); experiment: Test G Post-Emergence Protocol; details: Setaria faberi, post-emergence, 312 h; for pest or weed control at 15.625 g/ha: 15.625 g ai/ha, evaluated after 13 days (100=total damage to plant; 0=no damage to plant), read-out: Foxtail, Giant damage rating; for pest or weed control at 62.5 g/ha: 62.5 g ai/ha, read-out: Foxtail, Giant damage rating (100=total damage to plant; 0=no damage to plant); for pest or weed control at 62.5 g/ha / pest or weed control at 250 g/ha: evaluated after 13 days; for pest or weed control at 250 g/ha: 250 g ai/ha, read-out: damage to plant, Foxtail, Giant (100=total damage to plant; 0=no damage to plant)
Method in brief: as §1

[5] = test system: barnyardgrass (Echinochloa crus-galli); experiment: Test G Post-Emergence Protocol; details: Echinochloa crus-galli, post-emergence, 312 h; for pest or weed control at 15.625 g/ha: 15.625 g ai/ha, evaluated after 13 days (100=total damage to plant; 0=no damage to plant), read-out: Barnyardgrass damage rating; for pest or weed control at 62.5 g/ha: 62.5 g ai/ha, read-out: Barnyardgrass damage rating (100=total damage to plant; 0=no damage to plant); for pest or weed control at 62.5 g/ha / pest or weed control at 250 g/ha: evaluated after 13 days; for pest or weed control at 250 g/ha: 250 g ai/ha, read-out: damage to plant, Barnyardgrass (100=total damage to plant; 0=no damage to plant)
Method in brief: as §1

[6] = test system: velvetleaf (Abutilon theophrasti); experiment: Test G Post-Emergence Protocol; details: Abutilon theophrasti, post-emergence, 312 h; for pest or weed control at 15.625 g/ha: 15.625 g ai/ha, evaluated after 13 days (100=total damage to plant; 0=no damage to plant), read-out: Velvetleaf damage rating; for pest or weed control at 62.5 g/ha: 62.5 g ai/ha, read-out: Velvetleaf damage rating (100=total damage to plant; 0=no damage to plant); for pest or weed control at 62.5 g/ha / pest or weed control at 250 g/ha: evaluated after 13 days; for pest or weed control at 250 g/ha: 250 g ai/ha, read-out: damage to plant, Velvetleaf (100=total damage to plant; 0=no damage to plant)
Method in brief: as §1

[7] = test system: ivy-leaved morning glory (Ipomoea hederacea); experiment: Test G Pre-Emergence Protocol; details: Ipomoea, pre-emergence, 312 h, evaluated after 13 days; for pest or weed control at 15.625 g/ha: 15.625 g ai/ha, read-out: Morning-glory, Ivy-leaved damage rating (100=total damage to plant; 0=no damage to plant); for pest or weed control at 62.5 g/ha: 62.5 g ai/ha, 100=total damage to plant, 0=no damage to plant, read-out: plant damage rating, Morningglory, Ivy-leaved; for pest or weed control at 250 g/ha: 250 g ai/ha, read-out: Morningglory, Ivy-leaved damage rating (100=total damage to plant; 0=no damage to plant)
Method in brief: (§2)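 Under a 24/16° C day/night regime with 14 h light and 65% humidity, sown pots were sprayed after one day with compound (15.625, 62.5 or 250 g/ha; 50:50 acetone/water, 0.5% Tween 20). Damage was assessed visually 13 days later, 0 to 100.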

[8] = test system: redroot pigweed (Amaranthus retroflexus); experiment: Test G Pre-Emergence Protocol; details: Amaranthus retroflexus, pre-emergence, 312 h, evaluated after 13 days; for pest or weed control at 15.625 g/ha: 15.625 g ai/ha; for pest or weed control at 15.625 g/ha / pest or weed control at 250 g/ha: read-out: Pigweed, Redroot damage rating (100=total damage to plant; 0=no damage to plant); for pest or weed control at 62.5 g/ha: 62.5 g ai/ha, 100=total damage to plant, 0=no damage to plant, read-out: plant damage rating, Pigweed, Redroot; for pest or weed control at 250 g/ha: 250 g ai/ha
Method in brief: as §2

corn (Zea mays) [9] = experiment: Test G Pre-Emergence Protocol; details: Zea mays, pre-emergence, 312 h, evaluated after 13 days; for plant injury at 15.625 g/ha: 15.625 g ai/ha; for plant injury at 15.625 g/ha / plant injury at 250 g/ha: read-out: Corn damage rating (100=total damage to plant; 0=no damage to plant); for plant injury at 62.5 g/ha: 62.5 g ai/ha, 100=total damage to plant, 0=no damage to plant, read-out: plant damage rating, Corn; for plant injury at 250 g/ha: 250 g ai/ha
Method in brief: as §2

[10] = test system: giant foxtail (Setaria faberi); experiment: Test G Pre-Emergence Protocol; details: Setaria faberi, pre-emergence, 312 h, evaluated after 13 days; for pest or weed control at 15.625 g/ha: 15.625 g ai/ha; for pest or weed control at 15.625 g/ha / pest or weed control at 250 g/ha: read-out: Foxtail, Giant damage rating (100=total damage to plant; 0=no damage to plant); for pest or weed control at 62.5 g/ha: 62.5 g ai/ha, 100=total damage to plant, 0=no damage to plant, read-out: plant damage rating, Foxtail, Giant; for pest or weed control at 250 g/ha: 250 g ai/ha
Method in brief: as §2

[11] = test system: barnyardgrass (Echinochloa crus-galli); experiment: Test G Pre-Emergence Protocol; details: Echinochloa crus-galli, pre-emergence, 312 h, evaluated after 13 days; for pest or weed control at 15.625 g/ha: 15.625 g ai/ha, read-out: Barnyard grass damage rating (100=total damage to plant; 0=no damage to plant); for pest or weed control at 62.5 g/ha: 62.5 g ai/ha, 100=total damage to plant, 0=no damage to plant, read-out: plant damage rating, Barnyardgrass; for pest or weed control at 250 g/ha: 250 g ai/ha, read-out: Barnyardgrass damage rating (100=total damage to plant; 0=no damage to plant)
Method in brief: as §2

[12] = test system: velvetleaf (Abutilon theophrasti); experiment: Test G Pre-Emergence Protocol; details: Abutilon theophrasti, pre-emergence, 312 h, evaluated after 13 days; for pest or weed control at 15.625 g/ha: 15.625 g ai/ha; for pest or weed control at 15.625 g/ha / pest or weed control at 250 g/ha: read-out: Velvetleaf damage rating (100=total damage to plant; 0=no damage to plant); for pest or weed control at 62.5 g/ha: 62.5 g ai/ha, 100=total damage to plant, 0=no damage to plant, read-out: plant damage rating, Velvetleaf; for pest or weed control at 250 g/ha: 250 g ai/ha
Method in brief: as §2

CN1C[C@@H](c2ccc(C(F)(F)F)cc2)[C@H](C(=O)Nc2ncc[nH]2)C1=O (racemic) [Compound 1536]
pest or weed control at 15.625 g/ha [1]: 0% | pest or weed control at 62.5 g/ha [1]: 0% | pest or weed control at 250 g/ha [1]: 0% | pest or weed control at 15.625 g/ha [2]: 0% | pest or weed control at 62.5 g/ha [2]: 0% | pest or weed control at 250 g/ha [2]: 0% | plant injury at 15.625 g/ha (corn (Zea mays) [3]): 0% | plant injury at 62.5 g/ha (corn (Zea mays) [3]): 0% | plant injury at 250 g/ha (corn (Zea mays) [3]): 0% | pest or weed control at 15.625 g/ha [4]: 0% | pest or weed control at 62.5 g/ha [4]: 0% | pest or weed control at 250 g/ha [4]: 0% | pest or weed control at 15.625 g/ha [5]: 0% | pest or weed control at 62.5 g/ha [5]: 0% | pest or weed control at 250 g/ha [5]: 0% | pest or weed control at 15.625 g/ha [6]: 0% | pest or weed control at 62.5 g/ha [6]: 0% | pest or weed control at 250 g/ha [6]: 0% | pest or weed control at 15.625 g/ha [7]: 0% | pest or weed control at 62.5 g/ha [7]: 0% | pest or weed control at 250 g/ha [7]: 0% | pest or weed control at 15.625 g/ha [8]: 0% | pest or weed control at 62.5 g/ha [8]: 0% | pest or weed control at 250 g/ha [8]: 0% | plant injury at 15.625 g/ha (corn (Zea mays) [9]): 0% | plant injury at 62.5 g/ha (corn (Zea mays) [9]): 0% | plant injury at 250 g/ha (corn (Zea mays) [9]): 0% | pest or weed control at 15.625 g/ha [10]: 0% | pest or weed control at 62.5 g/ha [10]: 0% | pest or weed control at 250 g/ha [10]: 0% | pest or weed control at 15.625 g/ha [11]: 0% | pest or weed control at 62.5 g/ha [11]: 0% | pest or weed control at 250 g/ha [11]: 0% | pest or weed control at 15.625 g/ha [12]: 0% | pest or weed control at 62.5 g/ha [12]: 0% | pest or weed control at 250 g/ha [12]: 0%

Cc1csc(NC(=O)[C@@H]2C(=O)N(C)C[C@H]2c2ccc(C(F)(F)F)cc2)c1C#N (racemic) [Compound 1576]
pest or weed control at 15.625 g/ha [1]: 0% | pest or weed control at 62.5 g/ha [1]: 20% | pest or weed control at 250 g/ha [1]: 20% | pest or weed control at 15.625 g/ha [2]: 0% | pest or weed control at 62.5 g/ha [2]: 0% | pest or weed control at 250 g/ha [2]: 0% | plant injury at 15.625 g/ha (corn (Zea mays) [3]): 0% | plant injury at 62.5 g/ha (corn (Zea mays) [3]): 20% | plant injury at 250 g/ha (corn (Zea mays) [3]): 10% | pest or weed control at 15.625 g/ha [4]: 30% | pest or weed control at 62.5 g/ha [4]: 40% | pest or weed control at 250 g/ha [4]: 70% | pest or weed control at 15.625 g/ha [5]: 10% | pest or weed control at 62.5 g/ha [5]: 60% | pest or weed control at 250 g/ha [5]: 70% | pest or weed control at 15.625 g/ha [6]: 0% | pest or weed control at 62.5 g/ha [6]: 0% | pest or weed control at 250 g/ha [6]: 10% | pest or weed control at 15.625 g/ha [7]: 0% | pest or weed control at 62.5 g/ha [7]: 0% | pest or weed control at 250 g/ha [7]: 0% | pest or weed control at 15.625 g/ha [8]: 0% | pest or weed control at 62.5 g/ha [8]: 0% | pest or weed control at 250 g/ha [8]: 20% | plant injury at 15.625 g/ha (corn (Zea mays) [9]): 0% | plant injury at 62.5 g/ha (corn (Zea mays) [9]): 0% | plant injury at 250 g/ha (corn (Zea mays) [9]): 20% | pest or weed control at 15.625 g/ha [10]: 30% | pest or weed control at 62.5 g/ha [10]: 70% | pest or weed control at 250 g/ha [10]: 70% | pest or weed control at 15.625 g/ha [11]: 30% | pest or weed control at 62.5 g/ha [11]: 70% | pest or weed control at 250 g/ha [11]: 90% | pest or weed control at 15.625 g/ha [12]: 0% | pest or weed control at 62.5 g/ha [12]: 0% | pest or weed control at 250 g/ha [12]: 0%
